Results published in the supplement of paper PMC11451515.

System: SEM cells
Assay: cell viability relative to DMSO control; higher = less cytotoxic
Settings: 48 h
How it was run: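 Three leukemia lines were tested: NOMO1 and SEM at 500 cells/well and P12-Ichikawa at 1000 cells/well. Each was adapted for at least four passages in each medium and seeded in 5 μl in 1536-well plates, and library compounds in DMSO were pin-dosed from 47 μM to 0.79 nM in 11 threefold steps. After 48 h at 37°C, CellTiter-Glo One luminescence was read. Viability is a percentage relative to DMSO wells on each plate, with cell-free wells as background.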

[1] = HPLM + 10% dialyzed FBS, 0.000781 µM
[2] = HPLM + 10% dialyzed FBS, 0.00234 µM
[3] = HPLM + 10% dialyzed FBS, 0.00702 µM
[4] = HPLM + 10% dialyzed FBS, 0.0211 µM
[5] = HPLM + 10% dialyzed FBS, 0.0632 µM
[6] = HPLM + 10% dialyzed FBS, 0.19 µM
[7] = HPLM + 10% dialyzed FBS, 0.569 µM
[8] = HPLM + 10% dialyzed FBS, 1.71 µM
[9] = HPLM + 10% dialyzed FBS, 5.12 µM
[10] = HPLM + 10% dialyzed FBS, 15.4 µM
[11] = HPLM + 10% dialyzed FBS, 46.1 µM
[12] = RPMI 5 mM glucose + 10% FBS, 0.000781 µM
[13] = RPMI 5 mM glucose + 10% FBS, 0.00234 µM
[14] = RPMI 5 mM glucose + 10% FBS, 0.00702 µM
[15] = RPMI 5 mM glucose + 10% FBS, 0.0211 µM
[16] = RPMI 5 mM glucose + 10% FBS, 0.0632 µM
[17] = RPMI 5 mM glucose + 10% FBS, 0.19 µM
[18] = RPMI 5 mM glucose + 10% FBS, 0.569 µM
[19] = RPMI 5 mM glucose + 10% FBS, 1.71 µM
[20] = RPMI 5 mM glucose + 10% FBS, 5.12 µM
[21] = RPMI 5 mM glucose + 10% FBS, 15.4 µM
[22] = RPMI 5 mM glucose + 10% FBS, 46.1 µM
[23] = RPMI 5 mM glucose + 10% dialyzed FBS, 0.000781 µM
[24] = RPMI 5 mM glucose + 10% dialyzed FBS, 0.00234 µM
[25] = RPMI 5 mM glucose + 10% dialyzed FBS, 0.00702 µM
[26] = RPMI 5 mM glucose + 10% dialyzed FBS, 0.0211 µM
[27] = RPMI 5 mM glucose + 10% dialyzed FBS, 0.0632 µM
[28] = RPMI 5 mM glucose + 10% dialyzed FBS, 0.19 µM
[29] = RPMI 5 mM glucose + 10% dialyzed FBS, 0.569 µM
[30] = RPMI 5 mM glucose + 10% dialyzed FBS, 1.71 µM
[31] = RPMI 5 mM glucose + 10% dialyzed FBS, 5.12 µM
[32] = RPMI 5 mM glucose + 10% dialyzed FBS, 15.4 µM
[33] = RPMI 5 mM glucose + 10% dialyzed FBS, 46.1 µM

Structure (SMILES)	cell viability [1] [%]	cell viability [2] [%]	cell viability [3] [%]	cell viability [4] [%]	cell viability [5] [%]	cell viability [6] [%]	cell viability [7] [%]	cell viability [8] [%]	cell viability [9] [%]	cell viability [10] [%]	cell viability [11] [%]	cell viability [12] [%]	cell viability [13] [%]	cell viability [14] [%]	cell viability [15] [%]	cell viability [16] [%]	cell viability [17] [%]	cell viability [18] [%]	cell viability [19] [%]	cell viability [20] [%]	cell viability [21] [%]	cell viability [22] [%]	cell viability [23] [%]	cell viability [24] [%]	cell viability [25] [%]	cell viability [26] [%]	cell viability [27] [%]	cell viability [28] [%]	cell viability [29] [%]	cell viability [30] [%]	cell viability [31] [%]	cell viability [32] [%]	cell viability [33] [%]
O=C(NCC[S+](=O)([O-])c1ccc(C(F)(F)F)cn1)c1ccc(Cl)cc1	115	126	107	117	111	114	103	106	101	104	107	94.5	111	89.7	96.7	86.8	104	99.2	81	80.6	109	87.1	–	–	–	–	–	–	–	–	–	–	–
COc1ccc(C[C@@H](C)[C@@H](C)Cc2ccc(OC)c(OC)c2)cc1OC	73.5	93.2	85.2	92.7	96	94.9	91.8	83.2	19	16.3	8.54	80.6	104	102	111	106	120	93.3	82.4	18.7	16.7	4.5	76.3	97.7	88.9	91.7	88.9	83.7	81.1	74	18.3	14.9	4
Cc1ccc(NC(=O)c2ccc(CN3CCN(C)CC3)cc2)cc1Nc1nc(-c2cccnc2)cs1	56.2	90.4	87.9	65.4	53.1	47.6	42.4	32.7	28.2	20.2	24.6	64.8	99	93.2	71.2	70.9	51.7	43.7	34.8	23.6	15.7	17.1	54.5	88.4	74.7	65.1	63.6	46.7	37.5	29.7	22.1	10.9	18
COC1=C(N2CCNC(C)C2)C(=CC3=C1N(\C=C(C(O)=O)/C3=O)C4CC4)F (stereo not given)	74.8	88.8	83.1	84.2	51.8	66.3	55.2	51.2	13.9	21.6	18.1	98	95.1	116	96	53.2	92.3	58.5	61.7	44.8	37.9	25.6	73.7	73.3	79.9	83.1	48.8	60.2	48.7	38.5	13.4	26.6	12.2
NC(=O)c1cnc(N[C@@H]2CCCC[C@@H]2N)nc1Nc1cccc(-n2nccn2)c1	105	103	112	111	130	120	110	123	96.5	44.3	11.6	84.8	101	125	135	142	103	125	123	107	40.3	10.7	122	120	122	146	162	131	148	129	124	58.3	34.4
CC/1=C/C(=O)N(O)/C(=C1)C2CCCCC2	82.9	89.7	119	111	116	106	126	126	117	50.8	12.6	113	111	135	124	129	143	140	147	101	55.3	14.2	92.9	94.4	126	117	122	147	140	144	113	56.4	14.4
Cc1ccccc1N1C(=O)c2cc([S+](N)(=O)[O-])c(Cl)cc2NC1C (stereo not given)	117	108	105	107	122	117	28.7	102	112	107	103	142	120	117	109	118	126	22.5	128	119	112	84.4	125	103	89.6	103	100	97.5	26.8	126	112	108	97.2
